From US20140045746A1 (Merck Sharp & Dohme Corp., priority 2012, published 2014)
Values after ≈ are worked out from the molar mass of the structure shown.

What was measured:
[1] = Solubility in PBS pH 7; assay type: physicochemical; details: aqueous buffer; pH 7, PBS
[2] = target: T1, hGPR40 (Homo sapiens, UniProt O14842); assay: GPR40 Inositol Phosphate Turnover (IP1) Assay; assay type: cell-based; parameters: expressed in transfected cells; host or cells: HEK cells stably expressing the aequorin reporter
T1 sequence (O14842 whole entry): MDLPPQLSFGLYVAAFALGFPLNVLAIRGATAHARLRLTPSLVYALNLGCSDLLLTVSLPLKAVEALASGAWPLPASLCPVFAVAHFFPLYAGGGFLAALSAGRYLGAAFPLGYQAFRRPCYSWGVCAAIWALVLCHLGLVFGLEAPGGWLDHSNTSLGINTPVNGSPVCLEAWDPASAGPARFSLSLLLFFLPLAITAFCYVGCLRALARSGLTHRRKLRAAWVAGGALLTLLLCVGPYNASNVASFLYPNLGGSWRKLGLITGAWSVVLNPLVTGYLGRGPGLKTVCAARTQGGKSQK
Description: A human GPR40 stable cell-line was generated in HEK cells stably expressing the aequorin expressing reporter.
The assay is performed in 96-well format. HEK cells stably expressing human GPR^40 are plated to be 60-80% confluent within 72 h. After 72 h, the plates are aspirated and the cells washed with inositol-free DMEM (ICN). The wash media is replaced with 150 μL of 3H-inositol labeling media (inositol-free media containing 0.4% human albumin or 0.4% mouse albumin, 1× pen/strep antibiotics, glutamine, 25 mM HEPES to which is added 3H-myo-inositol NEN #NET114A 1mCi/mL, 25 Ci/mmol diluted 1:150 in loading media with a final specific radioactivity of 1 μCi/150 μL). Alternatively, the human and mouse albumin can be added after the overnight labeling step before the addition of LiCl.
The assay is typically run the next day after 18 h labeling. On the day of the assay, 5 μL, of 300 mM LiCl is added to all wells and incubated at 37 degrees for 20 min. 0.75 μL of 200× compounds are added and incubated with the cells for 60 min at 37 degrees. The media is then aspirated off and the assay terminated with the addition of 60 nI, 10 mM formic acid. The cells are lysed for 60 min at room temperature. 15-30 nI, of lysate is mixed with 70 mL/1 mg YSi SPA beads (Amersham) in clear bottom Isoplates. The plates are shaken for 2 h at room temperature. Beads are allowed to settle and the plates are counted in the Wallac Microbeta.

[3] = target: KV11.1 ion channel (hERG) (Homo sapiens, UniProt Q12809); assay: Binding to ion channel Kv11.1 (hERG)
Sequence of KV11.1 ion channel (hERG) (Q12809 whole entry): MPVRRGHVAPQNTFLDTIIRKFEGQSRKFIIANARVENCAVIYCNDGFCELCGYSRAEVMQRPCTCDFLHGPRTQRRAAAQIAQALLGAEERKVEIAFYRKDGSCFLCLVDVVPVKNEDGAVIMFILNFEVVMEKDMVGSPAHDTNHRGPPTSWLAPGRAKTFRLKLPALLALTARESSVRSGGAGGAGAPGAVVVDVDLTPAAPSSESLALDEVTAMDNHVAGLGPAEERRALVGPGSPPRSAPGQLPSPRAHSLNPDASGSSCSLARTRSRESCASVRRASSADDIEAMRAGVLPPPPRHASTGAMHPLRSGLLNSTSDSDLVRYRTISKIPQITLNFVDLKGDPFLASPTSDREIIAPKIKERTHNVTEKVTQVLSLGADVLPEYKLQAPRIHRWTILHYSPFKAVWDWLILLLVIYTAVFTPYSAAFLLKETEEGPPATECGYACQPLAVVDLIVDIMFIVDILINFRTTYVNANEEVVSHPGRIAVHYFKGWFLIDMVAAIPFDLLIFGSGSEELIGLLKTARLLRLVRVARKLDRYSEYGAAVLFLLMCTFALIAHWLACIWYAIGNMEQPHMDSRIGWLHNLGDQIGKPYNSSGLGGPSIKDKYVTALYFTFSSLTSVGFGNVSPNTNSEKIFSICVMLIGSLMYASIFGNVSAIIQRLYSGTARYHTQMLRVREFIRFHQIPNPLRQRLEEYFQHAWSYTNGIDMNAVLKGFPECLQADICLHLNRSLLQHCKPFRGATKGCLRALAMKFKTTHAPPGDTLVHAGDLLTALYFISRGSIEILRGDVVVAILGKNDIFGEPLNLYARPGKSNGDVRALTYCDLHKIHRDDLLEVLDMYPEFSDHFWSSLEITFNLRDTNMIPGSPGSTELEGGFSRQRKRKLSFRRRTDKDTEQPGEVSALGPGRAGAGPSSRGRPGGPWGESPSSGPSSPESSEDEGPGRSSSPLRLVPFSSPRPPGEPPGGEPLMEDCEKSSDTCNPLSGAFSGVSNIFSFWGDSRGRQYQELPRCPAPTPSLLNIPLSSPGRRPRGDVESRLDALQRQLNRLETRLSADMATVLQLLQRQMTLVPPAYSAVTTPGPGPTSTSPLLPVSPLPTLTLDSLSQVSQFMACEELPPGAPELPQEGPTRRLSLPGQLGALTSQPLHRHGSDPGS

[4] = target: T1, hGPR40; assay: GPR40 FLIPR assay (agonist-induced calcium mobilization); assay type: cell-based; parameters: expressed in transfected cells; host or cells: CHO cells stably expressing NFAT BLA (beta-lactamase); details: GPR40/CHO NFAT BLA cells;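 note: calcium mobilization in the cells read as fluorescence of fluo-4 AM loaded cells on FLIPR after compound addition, cells preloaded with dye 100 min at room temperature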
[5] = +0% human serum (Table A), read-out: Human GPR40 IP1, EC50, +0% human serum
[6] = +100% human serum (Table A), read-out: Human GPR40 IP1, EC50, +100% human serum
[7] = HEK cells stably expressing human GPR40, 0% serum, read-out: hGPR40 IP1 EC50 (0% serum)

EC50 [2, 7]	EC50 [4]	SMILES	solubility [1]	EC50 [2, 5]	EC50 [2, 6]	Ki [3]
–	–	Cc1cc(OCC2(C)COC2)cc(C)c1-c1cccc(COc2cc3c(cn2)[C@H]2[C@@H](C3)[C@@H]2C(=O)O)c1 (single isomer, unassigned) [Compound A-2]	118 µM (≈ 57.3 µg/mL)	18 nM	199 nM	–
–	–	Cc1cc(OCC2(C)COC2)cc(C)c1-c1ccc(F)c(COc2cc3c(cn2)[C@H]2[C@@H](C3)[C@@H]2C(=O)O)c1 (single isomer, unassigned) [Compound A-3]	107 µM (≈ 53.9 µg/mL)	9 nM	81 nM	40200 nM
–	–	Cc1cc(CCCC(C)(C)O)cc(C)c1-c1ccc(F)c(COc2cc3c(cn2)[C@H]2[C@@H](C3)[C@@H]2C(=O)O)c1 (single isomer, unassigned) [Compound A-4]	143 µM (≈ 72 µg/mL)	5 nM	124 nM	7500 nM
180 nM	45 nM	Cc1nc(N2CCC3(C=Cc4ccccc43)CC2)nc(C)c1-c1ccc(F)c(COc2cc3c(cn2)C2C(C3)C2C(=O)O)c1 (centres unmarked) [Compound 31-11, 3-((5-(4,6-dimethyl-2-(spiro[indene-1,4′-piperidin]-1′-yl)pyrimidin-5-yl)-2-fluorobenzyl)oxy)-5,5a,6,6a-tetrahydrocyclopropa[4,5]cyclopenta[1,2-c]pyridine-6-carboxylic acid]	–	–	–	–
51 nM	44 nM	Cc1nc(N2CCC(NS(C)(=O)=O)C2)ccc1-c1ccc(F)c(COc2cc3c(cn2)C2C(C3)C2C(=O)O)c1 (centres unmarked) [Compound 31-12, 3-((2-fluoro-5-(2-methyl-6-(3-(methylsulfonamido)-pyrrolidin-1-yl)pyridin-3-yl)benzyl)oxy)-5,5a,6,6a-tetrahydrocyclopropa[4,5]cyclopenta[1,2-c]pyridine-6-carboxylic acid]	–	–	–	–
32 nM	69 nM	Cc1nc(N2CCN(S(C)(=O)=O)CC2)ccc1-c1ccc(F)c(COc2cc3c(cn2)[C@H]2[C@@H](C3)[C@@H]2C(=O)O)c1 [Compound 31-13, (5aR,6S,6aS)-3-((2-fluoro-5-(2-methyl-6-(4-(methylsulfonyl)piperazin-1-yl)pyridin-3-yl)benzyl)oxy)-5,5a,6,6a-tetrahydrocyclopropa[4,5]cyclopenta[1,2-c]pyridine-6-carboxylic acid]	–	–	–	–
–	–	Cc1cccc(C)c1-c1cccc(COc2cc3c(cn2)[C@H]2[C@@H](C3)[C@@H]2C(=O)O)c1C [Compound A-1]	73 µM (≈ 29.2 µg/mL)	6 nM	81 nM	40000 nM
–	–	Cc1cccc(C)c1-c1cccc(COc2ccc3c(c2)C[C@H]2[C@H](C(=O)O)[C@@H]32)c1C [Compound B-1, reference compound]	56 µM (≈ 22.3 µg/mL)	69 nM	322 nM	6000 nM
–	–	Cc1cc(OCC2(C)COC2)cc(C)c1-c1cccc(COc2ccc3c(c2)C[C@H]2[C@H](C(=O)O)[C@@H]32)c1 [Compound B-2, reference compound]	21 µM (≈ 10.2 µg/mL)	70 nM	816 nM	8600 nM
–	–	Cc1cc(OCC2(C)COC2)cc(C)c1-c1ccc(F)c(COc2ccc3c(c2)C[C@H]2[C@H](C(=O)O)[C@@H]32)c1 [Compound B-3, reference compound]	49 µM (≈ 24.6 µg/mL)	31 nM	286 nM	7800 nM
–	–	Cc1cc(CCCC(C)(C)O)cc(C)c1-c1ccc(F)c(COc2ccc3c(c2)C[C@H]2[C@H](C(=O)O)[C@@H]32)c1 [Compound B-4, reference compound]	66 µM (≈ 33.2 µg/mL)	100 nM	348 nM	–

SMILES	EC50 [2, 7]	EC50 [4]	solubility [1]	EC50 [2, 5]	EC50 [2, 6]	Ki [3]
CCc1nc2ccc(F)c(F)c2n1-c1cccc(COc2cc3c(cn2)[C@H]2[C@@H](C3)[C@@H]2C(=O)O)c1C [Compound 32-9, (5aR,6S,6aS)-3-((3-(2-ethyl-6,7-difluoro-1H-benzo[d]imidazol-1-yl)-2-methylbenzyl)oxy)-5,5a,6,6a-tetrahydrocyclopropa[4,5]cyclopenta[1,2-c]pyridine-6-carboxylic acid]	4.9 nM	30 nM	–	–	–	–
